# From the METLIN SMRT retention time set (Domingo-Almenara et al. 2019)
# Assay: gradient 5% acetonitrile 3 min, to 50% in 2 min, to 85% in 15 min, held 3 min, 100 µL/min
# Details: column: Zorbax Extend-C18 2.1 x 50 mm; eluents: water / acetonitrile, 0.1% formic acid
# In short: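 In both positive and negative ionization mode, a quadrupole time-of-flight mass spectrometer coupled to HPLC analyzed pure standards run in mixtures of ~100 molecules. The Zorbax Extend-C18 column (2.1 × 50 mm, 1.8 μm) was operated at 100 μL/min with water and acetonitrile, each containing 0.1% formic acid. The dead volume was 40 μL and the dwell volume 900 μL. Retention time came from adduct peaks that were computationally picked and individually inspected by hand.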
row,RP-LC retention time [s],SMILES
1,897,Cc1ccc(NC(=O)N2CCCC2c2cc(C)on2)c(Cl)c1 (centres undefined)
2,897,CCCCOc1ccc(-c2csc(NC(=O)c3cc4cccc(OC)c4oc3=O)n2)cc1
3,876,CN(C1CCc2nn(CC3CC3)c(=O)n2CC1)S(=O)(=O)c1ccc(C(F)(F)F)cc1 (centres undefined)
4,949,O=C(c1ccccc1)C(c1ccccc1)C1(O)C(=O)Nc2c(Cl)cc(Cl)cc21 (centres undefined)
5,666,Cn1c(N2CCN(C(=O)COc3ccc(Cl)cc3)CC2)cc(=O)n(C)c1=O
6,706,Cc1c(C(=O)N2CCN(c3ccc(F)cc3)CC2)sc2nc[nH]c(=O)c12
7,1100,Cc1ccc(CNC(=O)Cn2nc(N3CCCCCC3)c3ccccc3c2=O)cc1
8,847,CCOc1ccc(-n2ccn3cc(-c4cccc(OC)c4)nc3c2=O)cc1
9,902,COc1cccc(-c2csc(Nc3ccc(C)cn3)n2)c1
10,536,COC[C@@H]1CN(Cc2cccc(OC)n2)C[C@H]1c1ccncc1
11,611,COC(=O)c1ccc(C(=O)NCC2(CO)CC2)cc1
12,765,CC1CCCN(C(=O)Cn2nc(-c3nc(-c4ccc5c(c4)OCO5)no3)ccc2=O)C1 (centres undefined)
13,769,CC(=O)c1ccc(NC(=O)CCc2c(C)nn(-c3cc(N4CCCC4)ncn3)c2C)cc1
14,766,CC(C)NC(=O)N1CCC(c2nc(C(C)C)cs2)CC1
15,1040,Cc1ccc(-c2noc(Cc3nnc(-c4ccccc4)o3)n2)cc1
16,846,COc1ccc(NS(=O)(=O)c2cc(-c3nnc(C(=O)N4CCCC4)o3)sc2C)c(OC)c1
17,688,CC(C)N1C(=O)CSc2cnn(CC(=O)NC3CCCC3)c(=O)c21
18,652,O=C(NCCN1CCOCC1)C1CCCN(c2nccnc2Sc2ccccc2)C1 (centres undefined)
19,671,O=c1c2cc(-c3ccccc3)nn2ccn1Cc1noc(CN2CCCCCC2)n1
20,574,CCOCC(=O)N1CCCC1CCc1ncc(C)n1C(C)C (centres undefined)
21,945,Cc1ccc(NC(=O)c2cccn2Cc2noc(C)n2)c(Cl)c1
22,649,CSc1ncccc1-c1nc(-c2ccc3c(c2)ncn3CCN2CCCCC2)no1
23,748,CCCCCC(CN1CCOCC1)C(=O)/C=C/c1ccccc1 (centres undefined)

row,RP-LC retention time [s],SMILES
1,561,Cc1ccnc(N2CCCC(C(=O)NCc3ccc(N(C)C)cc3)C2)n1 (centres undefined)
2,826,CCN1C(=O)c2cccnc2Sc2cc(NC(=O)c3cccc(OC)c3)ccc21
3,729,CCOC(=O)c1c(C)[nH]c(CCC(=O)NCCc2c(C)noc2C)c1C
4,728,Cc1ccc(NCCCc2ccccc2)c(N)c1
5,724,Cc1cc(C)cc(-n2ncc3c(N4CCC(C(N)=O)CC4)ncnc32)c1
6,947,Cc1c(Cl)cccc1NC(=O)/C=C/c1ccccc1
7,793,CCCN1C(=O)COc2cc(-c3noc(C(=O)NCC(C)c4ccccc4)n3)ccc21 (centres undefined)
8,872,Cc1nn(CC(=O)NCc2ccc(F)cc2)c(=O)c2nc(-c3ccccc3)sc12
9,648,CCN(CC)CCCNc1ncnc2c1cnn2-c1cccc(Cl)c1
10,635,COc1cc(OC)cc(C(=O)NCC(=O)Nc2nc3ccccc3[nH]2)c1
11,699,Cc1ccc(Oc2cccc(NC(=O)Cc3noc4ccccc34)c2)nn1
12,585,CC(=O)N(Cc1nn(C)c2c1CN(Cc1ccc(OCC(N)=O)cc1)CC2)c1ccccc1
13,950,Cc1ccc(C(=O)Nc2cccn3nc(C(C)C)nc23)cc1
14,835,Cc1cc(NC(=O)c2ccc3c(c2)CCCC3)n(C(C)C)n1
15,575,Cc1oc(-c2[nH]ncc2C(=O)N2CCCCC2)cc1S(=O)(=O)NCc1ccncc1
16,1370,CC(C)Oc1ccc(-c2noc(CN3C(=O)COc4cc(C(C)(C)C)ccc43)n2)cc1
17,709,O=c1[nH]nc(SC(F)(F)C(F)(F)C(F)(F)F)c(=O)[nH]1
18,1100,CCc1cc(-c2csc(S(=O)(=O)Nc3ccc(C(C)C)cc3)c2)on1
19,622,Cn1nc(C(=O)Nc2ccc(CC(=O)NCC(F)(F)F)cc2)ccc1=O
20,570,O=C(c1ccco1)N1CCCC(Nc2ncnc3c2CCC3)C1 (centres undefined)
21,711,O=C(Nc1nnc(C2CC(=O)N(c3ccccc3)C2)o1)c1cccc(F)c1 (centres undefined)
22,810,O=C(Nc1ccc(F)c(F)c1)C1CCN(C(=O)C2Sc3ccccc3NC2=O)CC1 (centres undefined)
23,672,CC(C)n1c(=O)c(NCCc2ccccc2)nc2ccncc21

row,RP-LC retention time [s],SMILES
1,718,Cc1ccc2nc(C(=O)NCc3ccc(Cl)cc3)cn2c1
2,791,O=C(Nc1ccccc1)C1CCN(C(=O)c2ncn3c2COC(c2ccc(F)cc2)C3)CC1 (centres undefined)
3,817,O=C(C1=CN(c2ccc(F)c(Cl)c2)c2ccccc2S1(=O)=O)N1CCCC1
4,973,CCOC(=O)c1cc(C(=O)OCC)n(CC(=O)c2ccccc2)n1
5,931,CN(CCc1noc(COc2ccccc2F)n1)C(=O)CCc1ccccc1
6,1090,CC1CCN(c2nn(CC(=O)Nc3ccccc3F)c(=O)c3ccccc23)CC1
7,655,Cc1oc(-c2[nH]ncc2C(=O)N2CCOCC2)cc1S(=O)(=O)Nc1ccccc1
8,708,COC(=O)c1ncn2c1C(=O)N(c1cccc(C)c1C)C(C)(C(=O)NCc1ccccc1)C2 (centres undefined)
9,887,COc1ccc(Cc2nc3nccc(-c4cccc(OC)c4)n3n2)cc1
10,567,O=C(Cn1nc(Cc2ccncc2)c2ccccc2c1=O)NCCCN1CCc2ccccc2C1
11,819,O=C(NCc1ccco1)c1csc(-c2ccc(N3CCCCC3)nc2)n1
12,777,Cc1ccc(NC(=O)CN2CCC(c3nc(-c4cccs4)no3)CC2)c(Cl)c1
13,616,COc1cc2c(cc1Oc1ccc(OC)c3c1CC1c4c(cc(OC)c(OC)c4-3)CCN1C)CC1c3c(cc(OC)c(OC)c3-2)CCN1C (centres undefined)
14,982,CS(=O)(=O)N1CCC(C(=O)Nc2cccc(F)c2)Oc2ccc(Cl)cc21 (centres undefined)
15,973,Cc1ccc(NC(=O)Cn2nc(C(=O)N3CCCCC3)c3ccccc32)c(Br)c1
16,701,CCc1ccc(CNc2nc3ccncc3n(CC)c2=O)cc1
17,664,COc1ccc(Cl)cc1NC(=O)N1CCN(C2=CC3=NC(C)CN3C=N2)CC1 (centres undefined)
18,1020,C=CCNC(=O)c1c(O)c2cccnc2n(-c2ccc(OC)cc2)c1=O
19,1100,O=C(NC1CCCCCCC1)C1CCN(S(=O)(=O)c2cc(-c3noc(C4CC4)n3)cs2)CC1
20,610,CCOc1ccc(CN2C[C@@H]3C(=O)N(CCCN4CCCC4=O)C(=O)[C@@H]3C2)cc1
21,631,CCC1Oc2ccc(C)cc2N(CC(=O)NCCN(C)C)C1=O (centres undefined)
22,711,O=C(CCc1csc(NC(=O)NC2CCCCC2)n1)NCc1cccs1
23,748,COc1cc(NC(=O)Cn2c(C)cc(-c3nnc(C)o3)c2C)cc(OC)c1

row,RP-LC retention time [s],SMILES
1,1010,CCCCCNC(=O)c1cnn2c(-c3ccc4c(c3)OCO4)ccnc12
2,1050,Cc1cc(=O)n(CC(=O)Nc2ccc(F)cc2F)c(-c2ccc(F)cc2)n1
3,804,CCCC(=O)Nc1cc2c(cc1N1CCC(C(=O)OCC)CC1)n(C)c(=O)c(=O)n2C
4,860,O=C(c1cc2cc(Cl)ccc2[nH]1)N1CCOCC1
5,713,OC[C@H]1O[C@@H](n2cnc3c(NC4CCCC4)nc(Cl)nc32)[C@@H](O)C1O (some centres undefined)
6,767,CCN(CC)C(=O)c1cc2c(s1)CCC(C(=O)Nc1ccc(N3CCOCC3)cc1)C2 (centres undefined)
7,652,CCN(CC)CCCNC(=O)c1c(-c2ccc(Br)s2)noc1C
8,720,Cc1ccc(NC(=O)NCC(c2cccnc2)c2cn(C)c3ccccc23)c(C)c1 (centres undefined)
9,754,CN(C)c1ccc(CNC(=O)c2nnc(-c3ccc(S(=O)(=O)N4CCCCC4)cc3)o2)cc1
10,919,Cc1cccc(C)c1NC(=O)C1CCN(S(C)(=O)=O)c2cc(Cl)ccc2O1 (centres undefined)
11,894,CCc1noc(NC(C)=O)c1-c1ccc(OC)c(S(=O)(=O)Nc2ccc(C)cc2Cl)c1
12,680,COc1cccc(-c2nc(-c3ccc4c(c3)ncn4CCN3CCCCC3)no2)c1OC
13,688,Cc1ccc(S(=O)(=O)Nc2ccc(-c3cn4cccc(C)c4n3)cc2)c(C)c1
14,1100,CC1CCN(S(=O)(=O)c2cc(C(=O)N3CCN(c4ccc(Cl)cc4)CC3)n(C)c2)CC1
15,1080,CCOC(=O)c1sc(NC(=O)C(CC)Sc2nc(C)cc(C)n2)nc1C (centres undefined)
16,601,CCNc1cc(N2CCCC(CCC(=O)NC(C)C)C2)ncn1 (centres undefined)
17,779,Cc1ccc(Nc2nc(C(=O)NCc3ccco3)nc3ccccc23)cc1
18,632,CC(C)NC(=O)N1CC[C@H](n2c(=O)n(C)c3cccnc32)C1
19,957,Cc1cccc(N2CCN(C(=O)CN3CCN(Cc4ccc(F)cc4Cl)C3=O)CC2)c1
20,762,COc1ccc(N2C=C(C(=O)N3CCOCC3)S(=O)(=O)c3ccc(F)cc32)cc1Cl
